Numbers after ± are expanded uncertainties.
Conditions: Liquid, Ebulliometric method (Recirculating still)

vapor or sublimation pressure (389.1 K) [kPa] | vapor or sublimation pressure (412.93 K) [kPa] | vapor or sublimation pressure (424.43 K) [kPa] | vapor or sublimation pressure (356.53 K) [kPa] | vapor or sublimation pressure (380.5 K) [kPa] | vapor or sublimation pressure (391.77 K) [kPa] | SMILES
2 ± 0.2 | 6 ± 0.61 | 10 ± 1 | – | – | – | CCCCCCCCCC(=O)OC [methyl decanoate]
– | – | – | 2 ± 0.2 | 6 ± 0.61 | 10 ± 1 | CCCCCCCC(=O)OC [methyl octanoate]

Source: the NIST ThermoML archive (doi:10.1016/j.jct.2016.11.024)
